According to US20220033407A1, “N-(pyridin-2-ylsulfonyl)cyclopropanecarboxamide Derivatives and their Use in the Treatment of Disease” (NOVARTIS AG, priority 2018, published 2022):

Columns and labels:
delF508-CFTR-HRP = biological target: T1, delF508-CFTR-HRP (Homo sapiens, UniProt P13569, DEL508-508); test: Measurement of delF508-CFTR-HRP surface expression in CFBE41o- cells (HRP luminescence); assay type: cell-based; settings: for Emax: CFBE41o-, read-out: DelF508-CFTR-HRP Amax %; for EC50: mean of at least two replicates;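 on DelF508-CFTR-HRP Amax %: percent efficacy relative to a reference CFTR corrector compound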
T1 construct: expressed in transfected cells
T1 sequence (P13569 with tags, fused parts or gaps DEL508-508): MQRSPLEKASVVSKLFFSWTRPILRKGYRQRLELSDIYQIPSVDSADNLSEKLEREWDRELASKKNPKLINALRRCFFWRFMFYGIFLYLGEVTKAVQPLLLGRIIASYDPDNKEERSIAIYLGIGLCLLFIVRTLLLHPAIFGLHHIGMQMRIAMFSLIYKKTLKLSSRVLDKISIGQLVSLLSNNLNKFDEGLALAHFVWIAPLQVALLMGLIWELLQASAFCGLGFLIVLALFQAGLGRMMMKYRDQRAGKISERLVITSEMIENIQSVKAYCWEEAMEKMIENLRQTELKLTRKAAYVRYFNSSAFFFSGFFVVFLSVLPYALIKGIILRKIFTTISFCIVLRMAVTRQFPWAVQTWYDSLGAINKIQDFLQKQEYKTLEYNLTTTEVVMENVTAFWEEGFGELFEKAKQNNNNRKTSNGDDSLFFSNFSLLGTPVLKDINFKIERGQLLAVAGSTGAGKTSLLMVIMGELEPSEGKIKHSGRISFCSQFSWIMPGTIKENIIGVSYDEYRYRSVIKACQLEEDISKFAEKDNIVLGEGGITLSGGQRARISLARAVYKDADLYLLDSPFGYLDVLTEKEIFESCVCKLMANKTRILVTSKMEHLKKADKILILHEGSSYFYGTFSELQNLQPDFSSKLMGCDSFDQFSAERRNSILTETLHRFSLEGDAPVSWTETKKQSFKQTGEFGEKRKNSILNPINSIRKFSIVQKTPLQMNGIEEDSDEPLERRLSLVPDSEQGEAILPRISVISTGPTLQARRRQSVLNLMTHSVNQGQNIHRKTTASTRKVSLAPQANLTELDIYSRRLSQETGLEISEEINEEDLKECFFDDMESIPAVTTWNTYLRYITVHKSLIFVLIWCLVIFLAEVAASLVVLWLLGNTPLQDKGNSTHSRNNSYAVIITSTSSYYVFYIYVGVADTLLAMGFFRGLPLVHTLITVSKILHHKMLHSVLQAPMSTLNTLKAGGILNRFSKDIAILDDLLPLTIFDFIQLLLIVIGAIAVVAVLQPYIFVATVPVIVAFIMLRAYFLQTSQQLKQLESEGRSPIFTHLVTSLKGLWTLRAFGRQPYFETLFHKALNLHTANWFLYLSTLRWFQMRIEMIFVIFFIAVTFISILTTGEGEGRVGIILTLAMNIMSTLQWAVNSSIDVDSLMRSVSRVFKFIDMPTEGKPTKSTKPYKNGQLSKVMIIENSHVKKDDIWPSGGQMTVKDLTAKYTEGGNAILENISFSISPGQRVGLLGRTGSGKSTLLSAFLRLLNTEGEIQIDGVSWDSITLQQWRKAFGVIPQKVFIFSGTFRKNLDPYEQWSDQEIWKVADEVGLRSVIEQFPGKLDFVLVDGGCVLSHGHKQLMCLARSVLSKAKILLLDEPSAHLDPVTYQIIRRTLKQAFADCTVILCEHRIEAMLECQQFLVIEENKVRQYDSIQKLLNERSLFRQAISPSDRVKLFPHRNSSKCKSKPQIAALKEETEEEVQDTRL
How it was run: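 EC50 derived by logistic regression of triplicate surface-HRP luminescence, plate-normalized to the lowest-concentration median. Doxycycline (500 ng/mL, 48 h) induced delF508-CFTR-HRP in CFBE41o- cells; compounds then applied 24 h at 37° C, 10 μM top, 3-fold over 10 points.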

delF508-CFTR = biological target: T2, delF508-CFTR (Homo sapiens, UniProt P13569, DEL508-508); test: delF508-CFTR functional activity in primary human bronchial epithelial cells (HBECs), Multi-Transepithelial Clamp Circuit (MTECC-24) assay, equivalent short circuit current; assay type: cell-based; settings: primary CF HBECs; for MTECC24 CFHBEC-Amax %: relative to reference combination 2 μM 3-(6-(1-(2,2-difluorobenzo[d][1,3]dioxol-5-yl)cyclopropane-1-carboxamido)-3-methylpyridin-2-yl)benzoic acid (24 h) + 0.5 μM N-(2,4-di-tert-butyl-5-hydroxyphenyl)-4-oxo-1,4-dihydroquinoline-3-carboxamide; for EC50: test compound added 24 h before assay, potentiator (S)-3-amino-6-methoxy-N-(3,3,3-trifluoro-2-hydroxy-2-methylpropyl)-5-(trifluoromethyl)picolinamide present at assay, mean of at least two replicates, read-out: MTECC24 CFHBEC-EC50
T2 construct: functional activity of the CFTR channel (Chloride ion transport) in patient derived primary human bronchial epithelial cells; host or cells: patient-derived primary human bronchial epithelial cells (HBECs), delF508-CFTR
T2 sequence (P13569 with tags, fused parts or gaps DEL508-508): as above
How it was run: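 Compound acted as corrector on differentiated primary delF508-CFTR bronchial cultures, first 24 h basolaterally, then 45 min both sides before reading. Equivalent short circuit current was recorded during sequential forskolin and potentiator addition. EC50 came from 10-point, 1-in-3 dilution curves against the 0.1% DMSO baseline.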

Emax (delF508-CFTR-HRP) [%] | EC50 (delF508-CFTR-HRP) [nM] | MTECC24 CFHBEC-Amax % (delF508-CFTR) [%] | EC50 (delF508-CFTR) [nM] | DelF508-CFTR-HRP Amax % (delF508-CFTR-HRP) [%] | Compound
115 | 3100 | 66 | 35 | – | CC(C)Cc1ccc(Cl)cc1OC1(C(=O)NS(=O)(=O)c2cccc(NC[C@H](C)O)n2)CC1 [Example 4-11, (S)-1-(5-Chloro-2-isobutylphenoxy)-N-((6-((2-hydroxypropyl)amino)pyridin-2-yl)sulfonyl)cyclopropane-1-carboxamide]
371 | 2180 | 68 | 20 | – | Cc1ccc(-c2cccc(C(F)(F)F)c2)c(OC2(C(=O)NS(=O)(=O)c3cccc(N4CC[C@@H](O)C4)n3)CC2)c1 [Example 5-11, (R)—N-((6-(3-Hydroxypyrrolidin-1-yl)pyridin-2-yl)sulfonyl)-1-((4-methyl-3′-(trifluoromethyl)-[1,1′-biphenyl]-2-yl)oxy)cyclopropane-1-carboxamide]
292 | 4160 | 138 | 167 | – | Cc1ccc([C@H]2CC[C@@H](F)CC2)c(OC2(C(=O)NS(=O)(=O)c3cccc(N4CC(C)(O)C4)n3)CC2)c1 (single isomer, unassigned) [Example 4-23, 1-(2-(Cis-4-fluorocyclohexyl)-5-methylphenoxy)-N-((6-(3-hydroxy-3-methylazetidin-1-yl)pyridin-2-yl)sulfonyl)cyclopropane-1-carboxamide]
429 | 530 | 83 | 49 | – | Cc1ccc(C2CCCCC2)c(OC2(C(=O)NS(=O)(=O)c3cccc(N4CCC5(CC4)CC(=O)c4cc(F)ccc4O5)n3)CC2)c1 [Example 2-28, 1-(2-Cyclohexyl-5-methylphenoxy)-N-((6-(6-fluoro-4-oxospiro[chroman-2,4′-piperidin]-1′-yl)pyridin-2-yl)sulfonyl)cyclopropanecarboxamide]
– | 2760 | 78 | 10 | 614 | Cc1ccc(C2CCC(F)(F)CC2)c(OC2(C(=O)NS(=O)(=O)c3cccc(N4CCCC(CO)C4)n3)CC2)c1 (single isomer, unassigned) [Example 3-3-2, 1-(2-(4,4-Difluorocyclohexyl)-5-methylphenoxy)-N-((6-(3-(hydroxymethyl)piperidin-1-yl)pyridin-2-yl)sulfonyl)cyclopropane-1-carboxamide]
284 | 940 | 101 | 3 | – | Cc1ccc(C2CCCCC2)c(OC2(C(=O)NS(=O)(=O)c3cccc(N4CCC(C)(C#N)CC4)n3)CC2)c1 [Example 2-15, N-((6-(4-cyano-4-methylpiperidin-1-yl)pyridin-2-yl)sulfonyl)-1-(2-cyclohexyl-5-methylphenoxy)cyclopropanecarboxamide]
765 | 1310 | 87 | 2 | – | Cc1ccc(C2CCCCCC2)c(OC2(C(=O)NS(=O)(=O)c3cccc(N)n3)CC2)c1 [Example 1-6, N-((6-Aminopyridin-2-yl)sulfonyl)-1-(2-cycloheptyl-5-methylphenoxy)cyclopropane-1-carboxamide]
– | 440 | 79.0 | 79 | 481.9 | Cc1ccc(C2CCC3(CCCC3)OC2)c(OC2(C(=O)NS(=O)(=O)c3cccc(N4CCC(O)(c5ccc(Cl)cc5)CC4)n3)CC2)c1 (single isomer, unassigned) [Example 11-3-2, N-((6-(4-(4-chlorophenyl)-4-hydroxypiperidin-1-yl)pyridin-2-yl)sulfonyl)-1-(5-methyl-2-(6-oxaspiro[4.5]decan-8-yl)phenoxy)cyclopropane-1-carboxamide]
213 | 3020 | 66 | 7 | – | Cc1ccc(C2CCCCC2)c(OC2(C(=O)NS(=O)(=O)c3cccc(N4CCC(C)(C(=O)O)CC4)n3)CC2)c1 [Example 2-5, 1-(6-(N-(1-(2-cyclohexyl-5-methylphenoxy)cyclopropanecarbonyl)sulfamoyl)pyridin-2-yl)-4-methylpiperidine-4-carboxylic acid]
579 | 1330 | 160.7 | 776 | – | O=C(NS(=O)(=O)c1cccc(N2CC[C@H](O)C2)n1)C1(Oc2cc(Cl)ccc2N2CCC3(CCC3)CC2)CC1 [Example 9-12, (S)-1-(5-Chloro-2-(7-azaspiro[3.5]nonan-7-yl)phenoxy)-N-((6-(3-hydroxypyrrolidin-1-yl)pyridin-2-yl)sulfonyl)cyclopropanecarboxamide]
– | 1780 | 100.3 | 757 | 361.4 | Cc1ccc(C2CCC(C)(C)OC2)c(OC2(C(=O)NS(=O)(=O)c3cccc(N4CCC(O)(C(F)(F)F)CC4)n3)CC2)c1 (single isomer, unassigned) [Example 11-2-2, 1-(2-(6,6-Dimethyltetrahydro-2H-pyran-3-yl)-5-methylphenoxy)-N-((6-(4-hydroxy-4-(trifluoromethyl)piperidin-1-yl)pyridin-2-yl)sulfonyl)cyclopropane-1-carboxamide]
642 | 2520 | 101 | 12 | – | Cc1ccc(C2CCCCC2)c(OC2(C(=O)NS(=O)(=O)c3cccc(N4CC(C)(O)C4)n3)CC2)c1 [Example 2-16, 1-(2-Cyclohexyl-5-methylphenoxy)-N-((6-(3-hydroxy-3-methylazetidin-1-yl)pyridin-2-yl)sulfonyl)cyclopropanecarboxamide]
139 | 4460 | 82.1 | 1760 | – | O=C(NS(=O)(=O)c1cccc(N2CC[C@H](O)C2)n1)C1(Oc2cc(Cl)ccc2N2CC3(C2)CC(F)(F)C3)CC1 [Example 9-22, (S)-1-(5-Chloro-2-(6,6-difluoro-2-azaspiro[3.3]heptan-2-yl)phenoxy)-N-((6-(3-hydroxypyrrolidin-1-yl)pyridin-2-yl)sulfonyl)cyclopropanecarboxamide]
297 | 4030 | 84 | 226 | – | Cc1ccc([C@H]2CC[C@H](F)CC2)c(OC2(C(=O)NS(=O)(=O)c3cccc(N4CC(C)(O)C4)n3)CC2)c1 (single isomer, unassigned) [Example 4-1, 1-(2-(Trans-4-fluorocyclohexyl)-5-methylphenoxy)-N-((6-(3-hydroxy-3-methylazetidin-1-yl)pyridin-2-yl)sulfonyl)cyclopropane-1-carboxamide]
114 | 3960 | 46 | 66 | – | Cc1ccc(C2CCCCC2)c(OC2(C(=O)NS(=O)(=O)c3cccc(N4CCNC(=O)C4)n3)CC2)c1 [Example 2-33, 1-(2-Cyclohexyl-5-methylphenoxy)-N-((6-(3-oxopiperazin-1-yl)pyridin-2-yl)sulfonyl)cyclopropanecarboxamide]
374 | 3280 | 71 | 12 | – | Cc1ccc(CC(C)C)c(OC2(C(=O)NS(=O)(=O)c3cccc(NC[C@@H](C)O)n3)CC2)c1 [Example 4-10, (R)-N-((6-((2-Hydroxypropyl)amino)pyridin-2-yl)sulfonyl)-1-(2-isobutyl-5-methylphenoxy)cyclopropane-1-carboxamide]
628 | 1270 | 93 | 4 | – | Cc1ccc(C2CCCCC2)c(OC2(C(=O)NS(=O)(=O)c3cccc(N4CC(C)(NC(=O)OC(C)(C)C)C4)n3)CC2)c1 [Example 2-50, Tert-butyl (1-(6-(N-(1-(2-cyclohexyl-5-methylphenoxy)cyclopropane-1-carbonyl)sulfamoyl)pyridin-2-yl)-3-methylazetidin-3-yl)carbamate]
119 | 3650 | 57 | 109 | – | Cc1ccc(C2CC2)c(OC2(C(=O)NS(=O)(=O)c3cccc(NC[C@H](C)O)n3)CC2)c1 [Example 4-14, (S)-1-(2-Cyclopropyl-5-methylphenoxy)-N-((6-((2-hydroxypropyl)amino)pyridin-2-yl)sulfonyl)cyclopropane-1-carboxamide]
626 | 870 | 76 | 63 | – | Cc1ccc(C2CCCCC2)c(OC2(C(=O)NS(=O)(=O)c3cccc(N4CC5(CN(C(=O)OC(C)(C)C)C5)C4)n3)CC2)c1 [Example 2-29, Tert-butyl 6-(6-(N-(1-(2-cyclohexyl-5-methylphenoxy)cyclopropanecarbonyl)sulfamoyl)pyridin-2-yl)-2,6-diazaspiro[3.3]heptane-2-carboxylate]
477 | 3460 | 70 | 23 | – | Cc1ccc(CC(C)C)c(OC2(C(=O)NS(=O)(=O)c3cccc(NC[C@H](C)O)n3)CC2)c1 [Example 4-9, (S)-N-((6-((2-Hydroxypropyl)amino)pyridin-2-yl)sulfonyl)-1-(2-isobutyl-5-methylphenoxy)cyclopropane-1-carboxamide]
